Reference: patent publication US8088828B2, “Treating benign prostate hyperplasia with SARMS” (priority 2002, dated 2012)

Tests used:
[1] = test system: intact male rats; experiment: Compound VII 0.5 mg/day in intact male rats, organ weights; format: in vivo, rat
[2] = test system: intact male Sprague-Dawley rats; experiment: Organ weights in intact male rats after 3, 6 or 9 days of daily subcutaneous injections; format: in vivo, rat
Experimental: Methods: Male Sprague-Dawley rats were purchased from Harlan Biosciences (Indianapolis, Ind.). The animals were maintained on a 12-h cycle of light and dark with food and water available ad libitum. Male Sprague-Dawley rats weighing 189 to 226 g were randomly distributed into groups of 5 animals. The intact male rats were treated with hydroxy-flutamide (0.5, 1, 5, 10 or 25 mg/kg), finasteride (5 mg/kg), Compound VII (0.5, 1, 5, 10, 25 mg/kg) or vehicle for 3, 6, or 9 days. The drugs were dissolved in DMSO:PEG300 (20:80, v:v) and administered via daily subcutaneous injections, and the dosages were adjusted based on animal's body weight, which was measured on a daily basis. A group of castrated rats (n=5) was also included as control for each time point. […] The organ weights were normalized with the body weights. Percentage changes were determined by comparison to intact animals. Statistical analyses of all the parameters were performed by single-factor ANOVA with the alpha value set a priori at p<0.05.

[3] = test system: intact male Sprague-Dawley rats; experiment: Prostate weight in intact Sprague-Dawley rats after 7 days of oral gavage; format: in vivo, rat
[4] = target: T1, human 5α-reductase type 1 (Homo sapiens, UniProt P18405); format: cell-based
T1 construct: expressed in transfected cells; host or cells: COS1 cells; expression vectors obtained from Dr. David W. Russell
T1 sequence (P18405 1-259): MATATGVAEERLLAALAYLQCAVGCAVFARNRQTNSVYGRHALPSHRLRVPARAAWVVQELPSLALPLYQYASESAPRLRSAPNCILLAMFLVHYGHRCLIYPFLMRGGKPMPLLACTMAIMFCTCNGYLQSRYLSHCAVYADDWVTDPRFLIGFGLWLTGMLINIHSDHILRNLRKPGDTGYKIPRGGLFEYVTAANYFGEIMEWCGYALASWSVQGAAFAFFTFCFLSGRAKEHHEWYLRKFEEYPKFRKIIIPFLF
Experimental: (§1) Methods: COS1 (American Type Culture Collection, Manassas, Va.) cells were plated in twelve-well plates at a density of 60,000 cells/well and transiently transfected with expression vectors for human 5•-reductase (obtained from Dr. David W. Russell, Southwestern Medical Center, Dallas, Tex.). LipofectAMINE PLUS™ Reagent (Invitrogen, Carlsbad, Calif.) was used for transfection. pCMV•SPORT-•gal plasmid (Invitrogen, Carlsbad, Calif.) was co-transfected to monitor transfection efficiency. Forty-eight hours after transfection, testosterone (4 μM) and/or Compound VI (2 or 200 μM) were added to the medium and incubated at 37° C. Aliquots of the culture medium were removed after 2 hours and the reaction stopped by addition of ice-cold acetonitrile (1:1, vol:vol). Testosterone and Compound VI concentrations in the incubate were determined by HPLC using a reversed-phase column (μBondaPak C18, 3.9×300 mm, Waters Corporation, Milford, Mass.) and a mobile phase of 38% acetonitrile in deionized water at a flow rate of 1.5 ml/min. Analytes were detected by UV absorbance at 254 nm. Calibration curves were prepared using the peak areas to calculate the concentration of testosterone or Compound VI in the incubate at the completion of the reaction. Cells were lysed after the reaction and the cellular supernatant used to determine •-galactosidase activity and ensure equal transfection efficiency between wells.

[5] = target: T2, human 5α-reductase type 2 (Homo sapiens, UniProt P31213); format: cell-based
T2 construct: expressed in transfected cells; host or cells: COS1 cells; expression vectors obtained from Dr. David W. Russell
T2 sequence (P31213 1-254): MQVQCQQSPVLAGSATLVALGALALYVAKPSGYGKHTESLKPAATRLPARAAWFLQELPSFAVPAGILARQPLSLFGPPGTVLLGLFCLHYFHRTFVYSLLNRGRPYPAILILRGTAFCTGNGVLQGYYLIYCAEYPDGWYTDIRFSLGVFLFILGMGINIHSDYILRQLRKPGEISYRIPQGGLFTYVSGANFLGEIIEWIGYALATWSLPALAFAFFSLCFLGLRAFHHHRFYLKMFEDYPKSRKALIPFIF
Experimental: as §1

[6] = test system: male Sprague-Dawley rats (intact, hemi-orchidectomized, castrated); experiment: Plasma testosterone, FSH, LH and osteocalcin in rats of varying hormonal status; format: in vivo, rat; conditions: for Plasma FSH levels / Plasma LH levels / Plasma osteocalcin levels / Plasma testosterone levels: 0.5 mg/day osmotic pump, 14 days
From the text: (§2) Methods: Compound VI was synthesized and characterized in the laboratory of Dr. Duane Miller at the University of Tennessee, Memphis, Tenn. Male Sprague-Dawley rats were purchased from Harlan Biosciences (Indianapolis, Ind.). The animals were maintained on a 12-h cycle of light and dark with food and water available ad libitum. All animal studies were reviewed and approved by the Animal Care and Use Committee of The Ohio State University, and conformed to the Principles of Laboratory Animal Care. Immature male Sprague-Dawley rats weighing […] were randomly distributed into 9 groups of 5 animals. One day before the initiation of drug treatment, groups 4 through 6 and groups 7 through 9 received unilateral or bilateral orchidectomy, respectively, via a midline scrotal incision. […] All drugs given to animals were freshly prepared as solutions in polyethylene glycol 300 (PEG 300). Groups 4 and 7 received treatment with vehicle alone (i.e., PEG 300). Animals in groups 3, 6, and 9 received testosterone propionate (TP, 0.5 mg/day) via implantation of subdermal osmotic pumps (Model 2002, Durect Corporation, Palo Alto, Calif.). Animals in groups 2, 5, and 8 received Compound VI (0.5 mg/day) via implantation of subdermal osmotic pumps. After 14 days of drug treatment, rats were weighed, anesthetized, and sacrificed. Blood samples were collected by venipuncture of the abdominal aorta. Plasma samples were analyzed for testosterone, FSH, LH and osteocalcin. Testosterone concentrations were measured by AniLytics Inc. (Gaithersburg, Md.). FSH and LH levels were measured by the National Hormone and Peptide Program (Dr. A F Parlow, UCLA, CA). Plasma osteocalcin levels were determined using a commercially available rat osteocalcin EIA kit from Biomedical Technologies Inc. (Stoughton, Mass.). The ventral prostates, seminal vesicles, and levator ani muscle were removed and weighed. Osmotic pumps were also removed from animals to check for correct pump operation. The weights of all organs were normalized to body weight, and analyzed for any statistically significant differences between groups using single-factor ANOVA with the alpha value set a priori at p<0.05. The weights of prostates and seminal vesicles were used as indices for evaluation of androgenic activity, and the levator ani muscle weight was used to evaluate the anabolic activity. Statistical analyses of parameters from complete blood count or serum chemical profiling, wherever applicable, were performed by single-factor ANOVA with the alpha value set a priori at p<0.05.

[7] = test system: male Sprague-Dawley rats (intact, hemi-orchidectomized, castrated); experiment: Prostate, seminal vesicle and levator ani muscle weights in rats of varying hormonal status; format: in vivo, rat; conditions: 0.5 mg/day, 14 days
From the text: as §2

[8] = 3 days, in general over 0.5, 1, 5, 10, 25 mg/kg s.c.
[9] = 9 days, high doses (5, 10, 25 mg/kg) s.c.
[10] = Compound VI 2 μM, 2-hour incubation
[11] = testosterone 4 μM, Compound VI 2 μM or 200 μM, 2 hours

## C[C@](O)(COc1ccc(F)cc1)C(=O)Nc1ccc([N+](=O)[O-])c(C(F)(F)F)c1 [Compound VII]
[1]
  effect on levator ani muscle weight: without affecting
  prostate weight: 63 % of that observed in vehicle-treated intact animals
[2]; 3 days, 0.5, 1, 5, 10, 25 mg/kg s.c.
  effect on levator ani muscle weight: without affecting
[2]; [8]
  prostate weight (compared to intact animals): 80%
  seminal vesicle weight (compared to intact animals): 70%
[2]; 6 days, 5, 10, 25 mg/kg s.c.
  changes in levator ani muscle weights: none of these doses caused any significant changes
[2]; 9 days, 25 mg/kg s.c.
  increase of levator ani muscle weight: 12%
[2]; [9]
  prostate weight (compared to intact animals): 50%
  seminal vesicle weight (compared to intact animals): 45%
[2]; 9 days, highest dose group (25 mg/kg) s.c.
  levator ani muscle weight (compared to intact animals): 112%
[2]; 9 days, most of the dose groups s.c.
  changes in levator ani muscle weights: no significant changes
[3]; 10 mg/kg compared to 1000 mg/kg as printed
  atrophy in prostate on increasing the dose 100-fold: did not significantly increase
[3]; all treatment groups, oral gavage once daily for 7 days, p<0.01
  reduction of prostate weight (normalized to body weight) compared to the intact control: greater than 48.4%

## CC(=O)Nc1ccc(OC[C@](C)(O)C(=O)Nc2ccc([N+](=O)[O-])c(C(F)(F)F)c2)cc1 [Compound VI]
[4]
  type of inhibition of 5α-reductase type 1: competitive inhibitor
[4]; [10]
  metabolism of Compound VI by 5α-reductase type 1: not metabolized
[4]; [11]
  decrease in testosterone concentration in the presence of Compound VI: less than 10%
[5]
  type of inhibition of 5α-reductase type 2: competitive inhibitor
[5]; [10]
  metabolism of Compound VI by 5α-reductase type 2: not metabolized
[5]; [11]
  decrease in testosterone concentration in the presence of Compound VI: less than 10%
[6]; all surgical groups, 0.5 mg/day
  effect on plasma FSH and LH levels: no effect
[6]; castrated rats
  Plasma FSH levels: 69.6 ± 11.7 ‡ ng/ml
  Plasma LH levels: 8.644 ± 2.799 ‡ ng/ml
  Plasma osteocalcin levels: 94.215 ± 12.568 ng/mL
  Plasma testosterone levels: 0.066 ± 0.148 ‡ ng/ml
[6]; hemi-orchidectomized and castrated animals, 0.5 mg/day
  effect on plasma osteocalcin levels: significant increase
[6]; hemi-orchidectomized rats
  Plasma FSH levels: 15.2 ± 2.2 ng/mL
  Plasma LH levels: 0.124 ± 0.115 ng/mL
  Plasma osteocalcin levels: 89.804 ± 15.517 ng/mL
  Plasma testosterone levels: 1.404 ± 0.810 ng/mL
[6]; intact rats
  Plasma FSH levels: 14.4 ± 1.7 ng/mL
  Plasma LH levels: 0.026 ± 0.037 ng/mL
  Plasma osteocalcin levels: 55.584 ± 9.715 ng/mL
  Plasma testosterone levels: 1.830 ± 0.510 ng/mL
[6]; intact, hemi-orchidectomized or castrated male rats, 0.5 mg/day
  effect on plasma testosterone levels: did not affect
[7]; castrated rats
  Levator ani muscle weight normalized to body weight: 100.65 ± 10.86 % of intact control
  Prostate weight normalized to body weight: 32.55 ± 11.65 % of intact control
  Seminal vesicle weight normalized to body weight: 16.47 ± 5.21 % of intact control
[7]; hemi-orchidectomized rats
  Levator ani muscle weight normalized to body weight: 108.10 ± 8.92 % of intact control
  Prostate weight normalized to body weight: 74.69 ± 8.44 % of intact control
  Seminal vesicle weight normalized to body weight: 78.55 ± 13.58 % of intact control
  size of the levator ani muscle: 108 % of that observed in untreated hemi-orchidectomized animals
  size of the prostate: 75 % of that observed in untreated hemi-orchidectomized animals
  size of the seminal vesicles: 79 % of that observed in untreated hemi-orchidectomized animals
[7]; intact rats
  Levator ani muscle weight normalized to body weight: 109.15 ± 14.68 % of intact control
  Prostate weight normalized to body weight: 79 % of intact control
  Seminal vesicle weight normalized to body weight: 90.54 ± 12.10 % of intact control
  changes in the size of the seminal vesicles or levator ani muscle: no statistically significant changes
[7]; intact rats, listed as COMPOUND VI
  Prostate weight normalized to body weight: 79.41 ± 9.32 % of intact control
[7]; rats
  adverse pharmacologic effects: No adverse pharmacologic effects were observed
